Assay results published in the NIST ThermoML archive (doi:10.1021/acs.jced.5b00778).

Assay: mn = molality of the nth substance listed, in mol/kg
Conditions: 298.15 K; for surface tension liquid-gas: Ring tensiometer; for electrical conductivity: 100 kPa, Liquid, Alternating current cell with electrodes

CCCCCCCCCCCCCCOCC(O)C[N+](C)(C)CCCCCCCC.[Br-] (stereo not given) + O
Conditions | electrical conductivity [S/m] | surface tension liquid-gas [mN/m]
m1 = 3.388e-06 | – | 60.85
m1 = 4.169e-06 | – | 59.07
m1 = 5.012e-06 | – | 58.67
m1 = 6.761e-06 | – | 54.53
m1 = 8.511e-06 | – | 51.91
m1 = 1.175e-05 | – | 47.9
m1 = 1.514e-05 | – | 44.86
m1 = 1.995e-05 | – | 41.5
m1 = 2.512e-05 | – | 39.09
m1 = 3.388e-05 | – | 36.16
m1 = 4.571e-05 | – | 33.74
m1 = 0.009 | 0.000161 | –
m1 = 0.0144 | 0.000255 | –
m1 = 0.0198 | 0.000343 | –
m1 = 0.0252 | 0.000427 | –
m1 = 0.0306 | 0.000521 | –
m1 = 0.036 | 0.000636 | –
m1 = 0.0414 | 0.000683 | –

CCCCCCCCCCCCCC[N+](C)(C)CC(O)COCCCCCCCCCC.[Br-] (stereo not given) + O
Conditions | electrical conductivity [S/m] | surface tension liquid-gas [mN/m]
m1 = 2.4e-07 | – | 70.44
m1 = 2.82e-07 | – | 69.87
m1 = 4.17e-07 | – | 69.41
m1 = 5.62e-07 | – | 65.68
m1 = 7.24e-07 | – | 57.18
m1 = 8.51e-07 | – | 53.77
m1 = 1.148e-06 | – | 48.14
m1 = 1.413e-06 | – | 44.06
m1 = 1.698e-06 | – | 40.95
m1 = 2.291e-06 | – | 35.65
m1 = 2.818e-06 | – | 33.63
m1 = 0.0013 | 2.8e-05 | –
m1 = 0.0027 | 4.9e-05 | –
m1 = 0.004 | 4.9e-05 | –
m1 = 0.0053 | 5.8e-05 | –
m1 = 0.0067 | 8e-05 | –
m1 = 0.008 | 0.000102 | –
m1 = 0.0093 | 0.000111 | –
m1 = 0.0107 | 0.000117 | –
m1 = 0.012 | 0.000157 | –
m1 = 0.0133 | 0.00017 | –
m1 = 0.0147 | 0.000166 | –
m1 = 0.016 | 0.000201 | –
m1 = 0.0174 | 0.000211 | –
m1 = 0.0187 | 0.000243 | –
m1 = 0.02 | 0.000261 | –
m1 = 0.0214 | 0.000284 | –
m1 = 0.0227 | 0.000297 | –
m1 = 0.024 | 0.000319 | –
m1 = 0.0254 | 0.00033 | –
m1 = 0.0267 | 0.000361 | –
m1 = 0.028 | 0.000376 | –

CCCCCCCCCCOCC(O)C[N+](C)(C)CCCCCCCC.[Br-] (stereo not given) + O
Conditions | electrical conductivity [S/m] | surface tension liquid-gas [mN/m]
m1 = 2.399e-05 | – | 63.84
m1 = 3.388e-05 | – | 60.78
m1 = 3.715e-05 | – | 59.62
m1 = 7.413e-05 | – | 53.71
m1 = 7.59e-05 | 0.00088 | –
m1 = 0.0001122 | – | 49.75
m1 = 0.0001514 | – | 47
m1 = 0.0001518 | 0.00161 | –
m1 = 0.0001905 | – | 45.13
m1 = 0.000235 | 0.0023 | –
m1 = 0.000263 | – | 41.95
m1 = 0.0003035 | 0.00316 | –
m1 = 0.0003715 | – | 39.03
m1 = 0.0004553 | 0.00439 | –
m1 = 0.0005248 | – | 35.86
m1 = 0.000535 | 0.00496 | –
m1 = 0.000607 | 0.00573 | –
m1 = 0.0007413 | – | 33.29
m1 = 0.0007588 | 0.00697 | –
m1 = 0.000835 | 0.00758 | –
m1 = 0.0009105 | 0.00827 | –
m1 = 0.001062 | 0.00937 | –

CCCCCCCCCCCCCCCCOCC(O)C[N+](C)(C)CCCCCCCC.[Br-] (stereo not given) + O
Conditions | electrical conductivity [S/m] | surface tension liquid-gas [mN/m]
m1 = 2.04e-06 | – | 69.09
m1 = 2.63e-06 | – | 68.55
m1 = 3.55e-06 | – | 61.94
m1 = 3.8e-06 | – | 60.95
m1 = 4.07e-06 | – | 55.95
m1 = 4.37e-06 | – | 48.71
m1 = 5.89e-06 | – | 44.65
m1 = 7.94e-06 | – | 41.6
m1 = 1.023e-05 | – | 37.64
m1 = 0.0067 | 5.6e-05 | –
m1 = 0.0076 | 5.8e-05 | –
m1 = 0.0086 | 6.4e-05 | –
m1 = 0.0095 | 7.4e-05 | –
m1 = 0.0105 | 7.7e-05 | –
m1 = 0.0114 | 7.8e-05 | –
m1 = 0.0124 | 9.3e-05 | –
m1 = 0.0133 | 9.6e-05 | –
m1 = 0.0143 | 0.000114 | –
m1 = 0.0152 | 0.000111 | –
m1 = 0.0162 | 0.000121 | –
m1 = 0.0171 | 0.000132 | –
m1 = 0.0181 | 0.000144 | –
m1 = 0.019 | 0.000147 | –
m1 = 0.0209 | 0.000168 | –
m1 = 0.0219 | 0.000176 | –
m1 = 0.0229 | 0.00019 | –
m1 = 0.0238 | 0.000201 | –
m1 = 0.0248 | 0.000212 | –

CCCCCCCCCCCCOCC(O)C[N+](C)(C)CCCCCCCC.[Br-] (stereo not given) + O
Conditions | electrical conductivity [S/m] | surface tension liquid-gas [mN/m]
m1 = 1.047e-05 | – | 64.92
m1 = 1.738e-05 | – | 60.07
m1 = 2.089e-05 | – | 57.65
m1 = 2.818e-05 | – | 53.97
m1 = 3.548e-05 | – | 52.04
m1 = 4.898e-05 | – | 48.46
m1 = 6.31e-05 | – | 46.1
m1 = 8.511e-05 | – | 42.5
m1 = 0.0001047 | – | 39.79
m1 = 0.0001479 | – | 36.43
m1 = 0.0001905 | – | 33.42
m1 = 0.014 | 0.00023 | –
m1 = 0.028 | 0.00034 | –
m1 = 0.0561 | 0.00065 | –
m1 = 0.0841 | 0.00105 | –
m1 = 0.1121 | 0.00117 | –
m1 = 0.1402 | 0.00141 | –
m1 = 0.1682 | 0.00173 | –
m1 = 0.1962 | 0.00195 | –
m1 = 0.2243 | 0.00226 | –
